Measurements published in patent US9168286B2, “Methods and compositions for use in treatment of patients with autoantibody positive disease” (Human Genome Sciences, Inc., priority 2005, dated 2015).

Tested on: subjects with SLE
Test: Phase 2 clinical trial of belimumab in SLE with 24-week extension and continuation trial: disease activity (SELENA SLEDAI, SLE Flare Index, PGA, BILAG, SF-36)
Format: in vivo, human
Protocol: Further, response rates among the treatment groups in the trial were also analyzed using a combined response endpoint (row 1), which combined a measure of global disease activity as measured by the SS score, with a measure of a patient's overall condition as assessed by the PGA disease activity index and a measure of disease in specific organ systems as measured by the BILAG scale.
Serum autoantibodies, Ig isotypes and complement (C3, C4) were measured at 1-3 month intervals. […]

[1] = ANA+ subjects, week 52, 1.0 mg/kg, N = 78
[2] = ANA+ subjects, week 52, 4.0 mg/kg, N = 79
[3] = ANA+ subjects, week 52, 10.0 mg/kg, N = 78

belimumab: an antibody that neutralizes Neutrokine-alpha protein
dose response in efficacy (1, 4, 10 mg/kg): no dose response in efficacy
mean percent change from baseline PGA (ANA+ subjects vs ANA+ placebo, as early as week 4, also weeks 8, 16, 48 (p<0.05), 52 (p<0.01)): significant improvement
mean SF-36 Physical Component Score (SF-36 PCS) (ANA+ subjects vs ANA+ placebo, weeks 12, 24, 48, 52, p<0.05): significant improvements
frequency of increase in prednisone from ≦[…] to >[…] (ANA+ subjects, as early as week 8, p<0.05 over weeks 8-12 and 32-40): significant reduction
combined response endpoint (SS, PGA, BILAG) (ANA+ subjects, p=0.0058): significant response
% of subjects with no worsening by PGA (<0.3 point increase from baseline) [1]: (89.7%)
% of subjects with reduction in SELENA SLEDAI ≧4 [1]: (52.6%)
subjects with no worsening by PGA (<0.3 point increase from baseline), number [1]: 70
subjects with reduction in SELENA SLEDAI ≧4, number [1]: 41
% of subjects with no worsening by PGA (<0.3 point increase from baseline) [2]: (88.6%)
% of subjects with reduction in SELENA SLEDAI ≧4 [2]: (48.1%)
subjects with no worsening by PGA (<0.3 point increase from baseline), number [2]: 70
subjects with reduction in SELENA SLEDAI ≧4, number [2]: 38
% of subjects with no worsening by PGA (<0.3 point increase from baseline) [3]: (92.3%)
% of subjects with reduction in SELENA SLEDAI ≧4 [3]: (47.4%)
subjects with no worsening by PGA (<0.3 point increase from baseline), number [3]: 72
subjects with reduction in SELENA SLEDAI ≧4, number [3]: 37
subjects with no worsening by PGA (<0.3 point increase from baseline), number (ANA+ subjects, week 52, All Active, N = 235, P 0.0027 vs placebo): 212
% of subjects with no worsening by PGA (<0.3 point increase from baseline) (ANA+ subjects, week 52, All Active, N = 235, P 0.0027 vs placebo (76.7%)): (90.2%)
subjects with reduction in SELENA SLEDAI ≧4, number (ANA+ subjects, week 52, All Active, N = 235, P 0.1169 vs placebo): 116
increases in BILAG organ domain score: musculoskeletal (ANA+ subjects, week 52, p<0.008): fewer increases in score
increases in BILAG organ domain score: neurological (ANA+ subjects, week 52, p<0.038): fewer increases in score
increases in BILAG organ domain score: general (ANA+ subjects, week 52, p<0.15): trend toward fewer increases in score
increases in BILAG organ domain score: renal (ANA+ subjects, week 52, p<0.15): trend toward fewer increases in score
reduction in SELENA SLEDAI (SS) score (ANA+ subjects, week 52, p=0.0435): 29%
increases in BILAG organ domain score: cardiovascular & respiratory (ANA+ subjects, week 52, p=0.060): trend toward fewer increases in score
subjects with increases of prednisone to >[…] (belimumab-treated, placebo ~15%): ~7%
PGA score (by week 16 (p=0.016) through week 52 (p<0.002), all active vs. placebo): improved
dosage of prednisone necessary to ameliorate disease manifestations (lupus patients, IV days 0, 14, 28 then every four weeks until week 52): effective in reducing the dosage of the corticosteroid prednisone
symptoms associated with lupus (patients with ANA titer 1:80 or greater and/or ≧30 IU/mL anti-dsDNA, IV days 0, 14, 28 then every four weeks until week 52): significantly ameliorated symptoms associated with lupus
combined response rate (seropositive subjects (n=175) who completed 128 weeks): 63%
combined response rate (seropositive subjects (n=321), all belimumab treatment groups combined, week 56, placebo 35%, p<0.05): 49%
SLE flare rate (SFI), percent of subjects with at least one flare (seropositive subjects, fifth six-month interval): 33%
SLE flare rate (SFI), percent of subjects with at least one flare (seropositive subjects, first six-month interval, placebo 76%): 72%
SLE flare rate (SFI), percent of subjects with at least one flare (seropositive subjects, fourth six-month interval): 30%
SLE flare rate (SFI), percent of subjects with at least one flare (seropositive subjects, second six-month interval, placebo 73%): 61%
SLE flare rate (SFI), percent of subjects with at least one flare (seropositive subjects, third six-month interval): 57%
combined response rate (seropositive subjects, weeks 76-128 of continuous therapy (ITT analysis)): 55%
combined response rate (subjects with baseline Anti-dsDNA autoantibodies, week 52): 47%
combined response rate (subjects with baseline Anti-dsDNA autoantibodies, week 128): 53%
combined response rate (subjects with baseline RNP autoantibodies, week 52): 42%
combined response rate (subjects with baseline RNP autoantibodies, week 128): 52%
combined response rate (subjects with baseline Ro autoantibodies, week 52): 41%
combined response rate (subjects with baseline Ro autoantibodies, week 128): 51%
combined response rate (subjects with baseline aCl autoantibodies, week 52): 51%
combined response rate (subjects with baseline aCl autoantibodies, week 128): 51%
composite numerical BILAG scores (vs. placebo): no significant differences
percent of seropositive subjects with new 1A or 2B BILAG flares (week 52, placebo 19%, p=0.0152): 9%
seropositive subjects with worsening PGA scores (week 52, placebo 23%, p=0.0027): 10%
percent of seropositive subjects with SS>4 point improvement (weeks 76-128): 58-60%
percent of seropositive subjects with new 1A or 2B BILAG flares (weeks 96-128): 6-7%
seropositive subjects with worsening PGA scores (weeks 96-128): 7-9%
